Paper PMC11742250, “Study on the absorption characteristics of euscaphic acid and tiliroside in fruits of Rosa laxa Retz” (PeerJ, 2025)

How the values were obtained:
Assay type in all cases: in vitro ADME, human
in vitro = conditions: human
Experimental: (§1) A precise amount of FRLE reserve solution is diluted to concentrations of 50, 100, and 150 μg/mL, representing the low, medium, and high concentrations of FRLE. Additionally, solutions are prepared containing 0.100 μmoL/mL Verapamil (Ver), 0.099 μmoL/mL Cyclosporine A (CsA), and 0.025 μmoL/mL EGTA at low, medium, and high concentrations for bidirectional transport.
(§2) Caco-2 cells are seeded at a density of 2.5 × 10^5 cells/mL, with 0.5 mL inoculated into each well of a Transwell® 12-well plate. After continuous culturing for 18 days, the cell model is established. Bidirectional transport experiments include AP→BL ([…], absorption transport) and BL→AP ([…], secretion transport).
(§3) Taking absorption transport as an example: 0.5 mL of drug-containing Hank’s Balanced Salt Solution (HBSS) solution is added to the apical (AP) side (supply side), while 1.5 mL of blank solution is added to the basolateral (BL) side (receiving side). At time points 15, 30, 60, 90, 120, 150, and 180 min, 200 µL is drawn from the BL side and simultaneously supplemented with 200 µL of HBSS buffer. The samples are then evaporated in a water bath, re-dissolved in methanol, and centrifuged at 12,000 rpm for 10 min. The supernatant is taken and assayed under the conditions described in “Establishment of the determination method for euscaphic acid and tiliroside”. The effects of different times, concentrations, inhibitors, chelating agents, and pH values on the absorption characteristics of euscaphic acid and tiliroside in FRLE are investigated. The secretion transport procedure is identical to the absorption transport ([Artursson & Karlsson, 1991]).
(§4) The side with the added blank solution is considered the receiving side, and the amount of drug in the receiving side is regarded as its absorption amount (Qr). In the A→B transport test, the amount of drug absorbed by the B-side chamber at any time point is denoted as (QrBi). In the B→A transport test, the amount of drug absorbed by the A-side chamber at any time point is (QrAi). The specific calculations are provided in the following formulas:
(§5) A-B transport: QrBi = 0.2 × (Cr1 + Cr2 + Λ + Cr(i-1)) + 1.5 × Cri
(§6) B-A transport: Qrdi = 0.2 × (Cr1 + Cr2 + Λ + Cr(i-1)) + 0.5 × Cdi
(§7) In the formula, 1.5 represents the volume of the test solution added to the B-side chamber (mL), 0.5 represents the volume of the test solution added to the A-side chamber (mL), and 0.2 is the volume of each sample taken (mL). Cri is the actual concentration in the receiving chamber at the i-th time point (μg/mL). The apparent permeability coefficient Papp (cm/s) is calculated using the following formula ([Lu et al., 2020]):
(§8) Papp=dQ/dt×1/A×C0 dQ/dt represents the amount of drug transported per unit of time (μg/s); A is the surface area of the 12-well Transwell® membrane (1.12 cm^2), and C0 is the initial concentration of the drug in the donor side ([…]) ([Qu et al., 2021]).
(§9) Exhaust ratio (RB-A/A-B)) is calculated using the following formula: RB−A/A−B=Papp(B−A)/Papp(A−B)

Caco-2 cells = assay: in vitro
Experimental: as §1, §2, §3, §4, §5, §6, §7, §8, §9

P-gp = assay: in vitro; conditions: human, Caco-2, RB→A/A→B
Experimental: as §1, §2, §3, §4, §5, §6, §7, §8, §9

With `C[C@@H]1CC[C@]2(C(=O)O)CC[C@]3(C)C(=CC[C@@H]4[C@@]5(C)C[C@@H](O)[C@@H](O)C(C)(C)[C@@H]5CC[C@]43C)[C@@H]2[C@]1(C)O` [Euscaphic acid] the Papp at 180 min (in vitro; Caco-2) was 7.54 to 269 nm/s, the efflux ratio at 180 min, 50 μg/mL (in vitro; Caco-2, RB→A/A→B) was 0.88 ± 0.01 and the efflux ratio at 180 min, 100 μg/mL (in vitro; Caco-2, RB→A/A→B) was 0.86 ± 0.01. The efflux ratio at 180 min, 150 μg/mL (in vitro; Caco-2, RB→A/A→B) was 1.38 ± 0.21, the efflux ratio at 180 min (in vitro; Caco-2, efflux ratio (RB→A/A→B)) was less than 1.5 and the efflux ratio at 180 min, 50 μg/mL (in vitro; Caco-2, pH 5, RB→A/A→B) was 1.16 ± 0.08. It also gave an efflux ratio at 180 min, 150 μg/mL (in vitro; Caco-2, pH 5, RB→A/A→B) of 0.97 ± 0.06, an efflux ratio at 180 min, 50 μg/mL (in vitro; Caco-2, pH 6, RB→A/A→B) of 0.95 ± 0.05 and an efflux ratio at 180 min, 100 μg/mL (in vitro; Caco-2, pH 6, RB→A/A→B) of 1.19 ± 0.02. For the same molecule, the efflux ratio at 180 min, 150 μg/mL (in vitro; Caco-2, pH 6, RB→A/A→B) was 1.03 ± 0.09, the efflux ratio at 180 min (in vitro; Caco-2, pH 6, RB→A/A→B value) was roughly 1 and the efflux ratio at 180 min, 50 μg/mL (in vitro; Caco-2, pH 8, RB→A/A→B) was 1.12 ± 0.03. For the same molecule, the efflux ratio at 180 min, 150 μg/mL (in vitro; Caco-2, pH 8, RB→A/A→B) was 0.91 ± 0.05, the efflux ratio at 180 min, 50 μg/mL (in vitro; Caco-2, pH 9, RB→A/A→B) was 1.08 ± 0.03 and the P-gp substrate status (Caco-2 cells; Caco-2) was “substrates of P-gp”. For the same molecule, the “absorption category from Papp” value (Caco-2 cells; Caco-2) was “good absorption”, the transport mechanism (Caco-2 cells; Caco-2) was “passive diffusion” and the “transport of euscaphic acid over time (Fig. 5M-O)” value (Caco-2 cells; human, Caco-2, 15 min, 50 μg/mL, pH 9) was 0.08. The “absorption amount (Qr)” value (Caco-2 cells; human, Caco-2, 120 min, 50 μg/mL) was 4.56, the “transport of euscaphic acid over time (Fig. 5M-O)” value (Caco-2 cells; human, Caco-2, 150 min, 50 µg/mL, pH 9) was 0.45 and the Papp (Caco-2 cells; human, Caco-2, 180 min) was “greater than 10^−6”. For the same molecule, the “RB→A/A→B ratios, range over all conditions” value (Caco-2 cells; human, Caco-2, 180 min) was 0.72-1.58, the RB→A/A→B (Caco-2 cells; human, Caco-2, 180 min, 100 μg/mL, pH 5) was 1.16 ± 0.03 and the RB→A/A→B (Caco-2 cells; human, Caco-2, 180 min, 100 μg/mL, pH 8) was 0.95 ± 0.02. The RB→A/A→B (Caco-2 cells; human, Caco-2, 180 min, 100 μg/mL, pH 9) was 1.16 ± 0.04, the RB→A/A→B (Caco-2 cells; human, Caco-2, 180 min, 150 μg/mL, pH 9) was 1.14 ± 0.01 and the efflux ratio at 180 min, 50 μg/mL (P-gp) was 0.72 ± 0.01. It also gave an efflux ratio at 180 min, 100 μg/mL (P-gp) of 0.78 ± 0.06 and an efflux ratio at 180 min, 150 μg/mL (P-gp) of 1.58 ± 0.01.
